In patent publication US10739330B2, “Carbopyronone compounds useful as diagnostic adjuvants” (LIFE TECHNOLOGIES CORPORATION, priority 2014, dated 2020):
Read-outs that look alike come from different tables or passages of the source.

Legend:
PBMCs [1] = assay: Cytotoxicity test in PBMCs, viability dye (SYTOX) and flow cytometry; conditions: after proliferation for 3 to 5 days
Excerpt: (§1) To test for cytotoxicity, PBMCs were stained with CELLTRACE (Thermo Fisher Scientific) CFSE (positive control) or Compound 2. The cells were split into samples for culturing and one sample was stimulated with anti-hCD3 (clone UCHT1) and supplemented with recombinant hIL2. Dye loading was observed by fluorescent microscopy. After proliferation for 3 to 5 days, the samples were stained with the appropriate viability dye (e.g., SYTOX dye) and analyzed by flow cytometry (see Table 3).

A549 cells = assay: CYQUANT Direct cytotoxicity assay; conditions: 10 μM, 30 mins at 37° C.; assayed on days 1, 2 and 3
Procedure: A549 cells plated in a 96 well plate were labeled with [sequence] […] The LCIS was then aspirated from cells and complete media added for an overnight incubation. The following day (Day 1) cells were assayed for cytotoxicity using the CYQUANT Direct assay (Thermo Fisher Scientific).

[2] = test system: lymphocyte layer of cells from whole blood; assay: Cell tracing by dye dilution, flow cytometry (Compound 2 vs CELLTRACE Far Red DDAO); type: cell-based; conditions: 5 μM, 20 min 37° C.; stimulated 5 days with DYNABEADS Human T-Activator CD3/CD28; 633/635 nm excitation, 660/20 emission filter
Procedure: The whole blood sample (20 mL) was diluted in 20 mL of PBS and then centrifuged for 30 min after addition of FICOLL-PAQUE Plus (15 mL) (GE Healthcare). The lymphocyte layer of cells was suspended in 25 mL of PBS buffer and centrifuged for 5 min. The cells were counted on the COUNTESS Automated Counter and the concentration was adjusted to 10^6 cells/mL. 10 mL of cells was incubated with either Compound 2 (FIG. 1A) or CELLTRACE Far Red DDAO (FIG. 1B) (Thermo Fisher Scientific) (5 μM) for 20 min in a 37° C. water bath. After incubation the cells were treated with 40 mL of OPTMIZER T Cell Expansion (Thermo Fisher Scientific) for 5 min. The treatment with OPTMIZER T Cell Expansion was repeated one more time after centrifugation. Next, the stained cells were stimulated with 50 μL DYNABEADS Human T-Activator CD3/CD28 (Thermo Fisher Scientific) per 1 mL of cells for 5 days. The stimulated cells were then analyzed using an ATTUNE flow cytometer (Thermo Fisher Scientific) with 633/635 nm excitation and a 660/20 bandpass emission filter.

PBMCs [3] = test system: PBMCs
Excerpt: as §1

| Compound | % Live Cells (PBMCs [1]; 2 μM dye) | % Live Cells (PBMCs [1]; 5 μM dye) | % Live Cells (PBMCs [1]; 10 μM dye) | cytotoxicity compared to DMSO alone (A549 cells) | generations of cells traced [2] | % Live Cells (PBMCs [3]) |
| --- | --- | --- | --- | --- | --- | --- |
| CN1CCCc2cc3c(cc21)C(C)(C)c1cc2c(cc1=C3c1ccccc1C(=O)[O-])CCC[N+]=2CCCCCC(=O)ON1C(=O)CCC1=O [Compound 2, 2-(1-(6-((2,5-dioxopyrrolidin-1-yl)oxy)-6-oxohexyl)-11-metheyliumyl-13,13-dimethyl-1,2,3,4,8,9,10,13-octahydro-1114-benzo[1,2-g:5,4-g′]diquinolin-6-yl)benzoate] | 53% | 55% | 64% | no cytotoxicity | seven |  |
| Carboxyfluorescein diacetate succinimidyl ester [CELLTRACE CFSE] |  |  |  |  |  | 52% |
